Experimental findings from patent publication US20080261201A1, “Methods and compounds to alter virus infection” (priority 2006, published 2008) are described below.

In this assay the test system is Rac1. The experiment in a line: HA-Rac1 incorporation into vesicular fractions of MCF-7 cells, Western blot. The conditions noted are these: IL-1β 1 ng/mL for 20 minutes. It counts as cell-based. The protocol:
Buoyant density centrifugation was used for subcellular fractionation and isolation of endosomes containing Nox2 activity. Cells were washed twice with ice-cold PBS and scrapped into a 1.5 mL microfuge tube using the same buffer. The cells were pelleted and resuspended in homogenization buffer (HMB) containing 0.25 M sucrose, 20 mM HEPES pH 7.4, 1 mM EDTA, and an EDTA-free protease inhibitor cocktail. The cells were homogenized using nitrogen cavitation in a cell disruption high-pressure chamber (Parr instruments, Moline, Ill.). The pressure was raised to 650-psi for 5 minutes and released suddenly. The homogenate was centrifuged at 3000×g for 15 minutes to pellet unbroken cells, nuclei, and heavy mitochondria. The heavy mitochondrial supernatant (HMS) was bottom loaded into an iodixanol discontinuous gradient in a 12.5 mL SW41Ti ultracentrifuge tube using a previously described method with modifications (Graham et al., 1994; Xia et al., 1998).
The discontinuous gradient was composed of 1.25 mL HMB without EDTA followed by bottom loading of the following % iodixanol steps sequentially with 1.0 mL 2.5%, 1.0 mL 5%, 1.5 mL 9%, 1.5 mL 14%, 2.5 mL 19%, 1.5 mL 26%, and finally the HMS in 2 mL 32%. Iodixanol concentrations were prepared fresh using a 50% iodixanol working solution (WS) diluted with HMB without EDTA. […]
In general terms: A western blot detects proteins with antibodies after separation by electrophoresis.

Consider “IL-1β: interleukin used to stimulate MCF-7 cells”, for which the “HA-Rac1 incorporation into crude vesicular fractions” value was “significantly enhanced”.
